# According to US4822606A, “Immunosuppressive synthetic peptides and analogs thereof based on retroviral envelope sequences” (Duke University, priority 1986, dated 1989):
# Ends that are not written are not given here.
# Columns and labels:
# [1] = tested on: Balb/c and NIH/Swiss splenic lymphocytes; assay: Murine two-way mixed leukocyte culture (MLC); format: cell-based; details: coupled to BSA; for average inhibition of murine MLC response (mean±SEM): 3 day MLC, three experiments
# Description: Fifty μl RPMI containing 1×10^5 Balb/c splenic lymphocytes and 50 μl containing 1×10^5 NIH/Swiss splenic lymphocytes were added to each well of a 96 well tissue culture plate. An additional 50 μl of RPMI containing peptide or no additives was added to each well and the cultures incubated for 3 to 5 days at 37° C in humidified 5% CO^2 Cultures were pulsed for 4 hr with 0.5 μCi of ^3 H-thymidine in 50 μl of RPMI before harvesting onto glass fiber filters.
# [2] = tested on: NIH/3T3 fibroblasts; assay: Fibroblast proliferation, NIH/3T3; format: cell-based; details: 2 or 3 days, dilutions 1:20, 1:40, 1:80
# Description: (§1) CKS-17 was added at concentrations of 1:20, 1:40 and 1:80 to monolayers of Balb/3T3 or NIH/3T3 fibroblasts (ca. 1/3 confluent) in 96 well tissue culture plates. The cells were grown for an addition 2-3 days and pulsed with 1.0 μCi ^3 H-thymidine./well for the final 24 hours. The culture media was removed and the cells washed once before disruption with 0.5 ml of 0.5 N NaOH. The radiolabeled nucleic acids were then harvested onto glass fibe filters as described.
# [3] = tested on: Balb/3T3 fibroblasts; assay: Fibroblast proliferation, Balb/3T3; format: cell-based; details: 2 or 3 days, dilutions 1:20, 1:40, 1:80
# Description: as §1
# [4] = tested on: human monocytes; assay: Monocyte superoxide anion (O2^-) release; format: cell-based; details: WGA stimulated, peptide coupled to BSA, mean ± SE
# Description: Monocytes were aliquoted into 12×75 mm polypropylene tubes (Falcon, Oxnard, CA) and incubated at 37° C. with test materials for twenty minutes. Cytochalasin E was then added to give a final concentration of 5 μg/ml. Ten minutes later 1.5 mg/ml cytochrome C was added followed immediately by wheat germ agglutinin (WGA) to a final concentration of 30 μg/ml (1). Supernatants were removed after 5 min. for determination of O2^- dismutase-inhibitable reduction of cytochrome C (2).
# [5] = tested on: human lymphocytes stimulated with Con A; assay: Human lymphocyte proliferative response to Con A; format: cell-based; details: addition 24 hr. after Con A; coupled to BSA
# [6] = tested on: murine CTLL-2 cells; assay: Murine cytotoxic T lymphocyte (CTLL-2) IL-2 dependent proliferation assay; format: cell-based; details: for average inhibition of CTLL-2 cell proliferation: 24 experiments; for ^3H-TdR incorporation, CPM ± SD of quadruplicate samples: 24 h; for effect upon CTLL-2 cell proliferation: peptides coupled to BSA or control BSA, same conditions as the active peptide;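 on all read-outs here: CTLL-2 cells, 4 x 10^3 per well in 96-well plates with RPMI plus 6% FBS, proliferation read as cell-bound radioactivity counted by liquid scintillation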
# [7] = tested on: lymphocytes from two non-related individuals; assay: Human two-way mixed leukocyte culture (MLC); format: cell-based; details: four experiments, final 24 h of 6 day culture, coupled to BSA
# Description: Fifty μl of RPMI containing 1×10^5 lymphocytes from each of two non-related individuals was added to each well of a 96 well tissue culture plate. An additional 50 μl of RPMI was added and cultures were incubated at 37° C. in humidified 5% CO2 for 5 days. Fifty μl of RPMI containing either peptide or no addition was added for an additional 24 hr. During the final 4 hr of incubation each well was incubated with 25 μl of RPMI containing 0.5 μCi of ^3 H-thymidine and incorporated radionucleotide determined as above.
# [8] = tested on: human lymphocytes; assay: Binding of [^125 I]-CKS-17-BSA to cultured human lymphocytes; details: >1000 fold excess of unlabeled BSA conjugate
# Description: Human mononuclear cells were stimulated for 3 days with PHA, washed free of lectin, cultured for 10 days with 10% of a human IL-2 preparation (electronucleonics) washed and resuspended to 5×10^6 cells/ml in phosphate-buffered-saline, pH 7.2 (PBS) containing 0.1% BSA. […] Binding was terminated and unbounded [^125 I]-CKS-17-BSA removed by rapid (30 sec.) centrifugation of the cells through oil. The cell associated radioactivity was measured using a gamma radiation counter.
# [9] = tested on: T4^+ and T8^+ lymphocytes, B cells, NK cells and phagocytes; assay: Preliminary double-labeling studies; format: binding
# [10] = Immunization of rabbits; format: in vivo, rabbit
# [11] = tested on: human lymphocytes stimulated with Con A; assay: Human lymphocyte proliferative response to Con A; format: cell-based; details: coupled to BSA
# Description: One hundred μl of RPMI containing 2×10^5 lymphocytes was added to each well of a 96 well tissue culture plate. […] The cultures were incubated for 72 hr at 37° C. in 5% humidified CO2, pulsed with ^3 Hthymidine (0.,5 μCi/well, 4h.) and the incorporated radioactivity determined as described above. The concentration of OKT3 antibody used was previously determined to give 75-100% of a maximal response.
# [12] = Expt. 1, dilution 1:40, coupled to BSA
# [13] = Expt. 1, dilution 1:80, coupled to BSA
# [14] = Expt. 2, dilution 1:40, coupled to BSA
# [15] = Expt. 2, dilution 1:80, coupled to BSA
sequence,measurement,setting,value
LQNRRGLDLLFLKEGGL [CKS-17],average inhibition of murine MLC response (mean±SEM),[1]; dilution 1:20,94±2%
same,average inhibition of murine MLC response (mean±SEM),[1]; dilution 1:30,74±4%
same,average inhibition of murine MLC response (mean±SEM),[1]; dilution 1:80,48±9%
same,effect on five-day murine MLC reactions,[1]; five-day MLC,blocked
same,effect upon ^3H-thymidine incorporation,[2],no effect
same,effect upon ^3H-thymidine incorporation,[3],no effect
same,O2^- Release,[4]; dilution 1:20,6.0 ± 0.5 nmoles/5 minues/1.2 × 10^6 mon
same,O2^- Release,[4]; dilution 1:40,8.3 ± 0.5 nmoles/5 minues/1.2 × 10^6 mon
same,inhibition when peptide is added 24 hr. after the mitogen,[5],comparable levels of inhibition
same,average inhibition of CTLL-2 cell proliferation,"[6]; dilution 1:20, coupled to BSA",49.6%
same,average inhibition of CTLL-2 cell proliferation,"[6]; dilution 1:40, coupled to BSA",22.0%
same,average inhibition of CTLL-2 cell proliferation,"[6]; dilution 1:80, coupled to BSA",9.4%
same,"short term toxic effect, trypan blue dye exclusion","[6]; CTLL-2 cells, coupled to BSA",not due to either a short term toxic effect
same,% inhibition of CTLL-2 proliferation,"[6]; Expt. 1, dilution 1:20 (ca. 7.3 μM), coupled to BSA",76%
same,"^3H-TdR incorporation, CPM ± SD of quadruplicate samples","[6]; Expt. 1, dilution 1:20, coupled to BSA","15,255 ± 277 CPM"
same,% inhibition of CTLL-2 proliferation,[6]; [12],34%
same,"^3H-TdR incorporation, CPM ± SD of quadruplicate samples",[6]; [12],"42,827 ± 1386 CPM"
same,% inhibition of CTLL-2 proliferation,[6]; [13],7%
same,"^3H-TdR incorporation, CPM ± SD of quadruplicate samples",[6]; [13],"60,005 ± 1425 CPM"
same,% inhibition of CTLL-2 proliferation,"[6]; Expt. 2, dilution 1:20 (ca. 7.3 μM), coupled to BSA",64%
same,"^3H-TdR incorporation, CPM ± SD of quadruplicate samples","[6]; Expt. 2, dilution 1:20, coupled to BSA","10,950 ± 2171 CPM"
same,% inhibition of CTLL-2 proliferation,[6]; [14],24%
same,"^3H-TdR incorporation, CPM ± SD of quadruplicate samples",[6]; [14],"23,128 ± 3288 CPM"
same,% inhibition of CTLL-2 proliferation,[6]; [15],1%
same,"^3H-TdR incorporation, CPM ± SD of quadruplicate samples",[6]; [15],"29,980 ± 3490 CPM"
same,incubation required for maximal inhibition of CTLL-2 cell proliferation,"[6]; ca. 15 μM, coupled to BSA",16 h
same,reversal of inhibition by increasing the concentration of IL-2 twenty-fold,[6]; coupled to BSA,could not be reversed
same,effect upon the CTLL-2 cells,[6]; free (unconjugated) peptide,no effect
same,average inhibition of human two-way MLC (mean±SEM),[7]; dilution 1:20,92±2
same,average inhibition of human two-way MLC (mean±SEM),[7]; dilution 1:40,64±11
same,average inhibition of human two-way MLC (mean±SEM),[7]; dilution 1:80,18±3
same,inhibition of [^125 I]-CKS-17-BSA binding by excess unlabelled material,[8],binding could be inhibited
same,cell types bound,[9],"binds to T4^+ and T8^+ lymphocytes, B cells, NK cells and phagocytes"
same,antibodies elicited by immunization of rabbits,[10],elicited antibodies which react with free peptide and the native viral protein
same,% inhibition of Con A stimulated proliferation,"[11]; Expt. 1, dilution 1:10",88%
same,"^3H-TdR incorporation, CPM ± SD of quadruplicate samples","[11]; Expt. 1, dilution 1:10","11,170 ± 3572 CPM"
same,% inhibition of Con A stimulated proliferation,"[11]; Expt. 1, dilution 1:20",58%
same,"^3H-TdR incorporation, CPM ± SD of quadruplicate samples","[11]; Expt. 1, dilution 1:20","38,132 ± 11,989 CPM"
same,% inhibition of Con A stimulated proliferation,"[11]; Expt. 1, dilution 1:40",58%
same,"^3H-TdR incorporation, CPM ± SD of quadruplicate samples","[11]; Expt. 1, dilution 1:40","38,085 ± 10,678 CPM"
same,% inhibition of Con A stimulated proliferation,"[11]; Expt. 1, dilution 1:80",48%
same,"^3H-TdR incorporation, CPM ± SD of quadruplicate samples","[11]; Expt. 1, dilution 1:80","46,815 ± 601 CPM"
same,% inhibition of Con A stimulated proliferation,"[11]; Expt. 2, dilution 1:10",66%
same,"^3H-TdR incorporation, CPM ± SD of quadruplicate samples","[11]; Expt. 2, dilution 1:10","34,601 ± 3914 CPM"
same,% inhibition of Con A stimulated proliferation,"[11]; Expt. 2, dilution 1:20",38%
same,"^3H-TdR incorporation, CPM ± SD of quadruplicate samples","[11]; Expt. 2, dilution 1:20","62,445 ± 3602 CPM"
same,% inhibition of Con A stimulated proliferation,"[11]; Expt. 2, dilution 1:40",17%
same,"^3H-TdR incorporation, CPM ± SD of quadruplicate samples","[11]; Expt. 2, dilution 1:40","83,154 ± 4422 CPM"
same,% inhibition of Con A stimulated proliferation,"[11]; Expt. 2, dilution 1:80",5%
same,"^3H-TdR incorporation, CPM ± SD of quadruplicate samples","[11]; Expt. 2, dilution 1:80","95,395 ± 45 CPM"
same,incorporation of ^3H-thymidine blocked,[11]; text: 1:20 dilution (ca. 7.5μM),up to 88%
PPFSLSPVPTL [SP-70],O2^- Release,[4]; dilution 1:20,10.7 ± 0.5 nmoles/5 minues/1.2 × 10^6 mon
same,O2^- Release,[4]; dilution 1:40,11.6 ± 0.2 nmoles/5 minues/1.2 × 10^6 mon
same,effect upon CTLL-2 cell proliferation,[6],little or no effect
PVMHPHGAPPNHRPWGMKNLQAIK [SP-16],O2^- Release,[4]; dilution 1:20,9.8 ± 0.2 nmoles/5 minues/1.2 × 10^6 mon
same,O2^- Release,[4]; dilution 1:40,12.4 ± 0.6 nmoles/5 minues/1.2 × 10^6 mon
same,effect upon CTLL-2 cell proliferation,[6],little or no effect
QYAAQNRRGLDLL [SP-74],O2^- Release,[4]; dilution 1:20,10.7 ± 0.4 nmoles/5 minues/1.2 × 10^6 mon
same,O2^- Release,[4]; dilution 1:40,12.5 ± 0.5 nmoles/5 minues/1.2 × 10^6 mon
same,effect upon CTLL-2 cell proliferation,[6],little or no effect
